According to patent publication US12247015B2, “3-amino-4H-benzo[e][1,2,4]thiadiazine 1,1-dioxide derivatives as inhibitors of MRGX2” (Solent Therapeutics, LLC, priority 2019, dated 2025):

Target: hMRGX2 (CHO-K1 cells overexpressing MRGX2) (Homo sapiens (Human), UniProt Q96LB1)
Test: In vitro inhibition (EC50) of intracellular calcium flux, FLIPR Tetra, substance P stimulation
Assay type: cell-based
Details: stimulated with MRGX2 ligand substance P, FLIPR Calcium 5, read-out: hMRGX2 Cellular Potency (pEC50) (converted)
Method: In Vitro Inhibition (EC50) of Intracellular Calcium Flux
The release of intracellular calcium following stimulation of cells with substance P in the presence or absence of inhibitor compounds was measured using the FLIPR Tetra® system. CHO-K1 cells overexpressing MRGX2 were seeded into 384-well plates (Black clear bottom, TC-treated, Fisher #07-200-655) and incubated overnight to allow for cell attachment. Media was removed, and 1× loading buffer (FLIPR® Calcium 5 assay solution, Molecular Devices, per manufacturer specifications) was added. The plates were incubated at 37° C. for 30 minutes. Test compounds were added to cells (11-point dose response, 10 µM maximum concentration) and fluorescence measured (120 seconds, in real time) using the FLIPR Tetra® system. Immediately following, MRGX2 ligand substance P was added at a final concentration of 1 µM and fluorescence measured (120 seconds, in real time) using the FLIPR Tetra® system. The data for the examples are reported as pEC50.

Sequence of hMRGX2 (CHO-K1 cells overexpressing MRGX2) (Q96LB1 whole entry): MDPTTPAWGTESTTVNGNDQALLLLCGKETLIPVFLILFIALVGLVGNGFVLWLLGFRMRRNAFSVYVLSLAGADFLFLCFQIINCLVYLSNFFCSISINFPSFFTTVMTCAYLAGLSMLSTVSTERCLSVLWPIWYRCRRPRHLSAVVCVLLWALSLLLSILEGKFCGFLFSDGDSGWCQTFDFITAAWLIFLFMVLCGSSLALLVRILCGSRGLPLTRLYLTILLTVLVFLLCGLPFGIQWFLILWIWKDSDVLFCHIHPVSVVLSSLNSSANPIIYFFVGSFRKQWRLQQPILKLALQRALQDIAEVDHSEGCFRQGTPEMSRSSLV

EC50 [nM]	Compound
41.1	COC(C)CNC1=NS(=O)(=O)c2cccc(-c3cccc(F)c3F)c2N1 (racemic) [Example 23, 5-(2,3-difluorophenyl)-3-((2-methoxypropyl)amino)-4H-benzo[e][1,2,4]thiadiazine 1,1-dioxide]
430	Cc1nn(C)cc1-c1cccc2c1NC(NCC1CCC1)=NS2(=O)=O [Example 61, 3-((cyclobutylmethyl)amino)-5-(1,3-dimethyl-1H-pyrazol-4-yl)-4H-benzo[e][1,2,4]thiadiazine 1,1-dioxide]
738	O=S1(=O)N=C(NCCF)Nc2c(-c3cccc(F)c3F)cccc21 [Example 21, 5-(2,3-difluorophenyl)-3-((2-fluoroethyl)amino)-4H-benzo[e][1,2,4]thiadiazine 1,1-dioxide]
443	CCNC1=NS(=O)(=O)c2cccc(-c3cc(F)ccc3F)c2N1 [Example 143, 5-(2,5-difluorophenyl)-3-(ethylamino)-4H-benzo[e][1,2,4]thiadiazine 1,1-dioxide]
139	O=S1(=O)N=C(NCCC2CCCO2)Nc2c(-c3cccc(F)c3Cl)cccc21 (stereo not drawn) [Example 73, 5-(2-chloro-3-fluorophenyl)-3-((2-(tetrahydrofuran-2-yl)ethyl)amino)-4H-benzo[e][1,2,4]thiadiazine 1,1-dioxide]
366	COCCNC1=NS(=O)(=O)c2cccc(-c3cc(F)ccc3F)c2N1 [Example 141, 5-(2,5-difluorophenyl)-3-((2-methoxyethyl)amino)-4H-benzo[e][1,2,4]thiadiazine 1,1-dioxide]
70.8	O=S1(=O)N=C(NCC2CC2)Nc2c(-c3ccnc(F)c3Cl)cccc21 [Example 50, 5-(3-chloro-2-fluoropyridin-4-yl)-3-((cyclopropylmethyl)amino)-4H-benzo[e][1,2,4]thiadiazine 1,1-dioxide]
638	COCCNC1=NS(=O)(=O)c2cccc(-c3ccc(F)c(F)c3C)c2N1 [Example 170, 5-(3,4-difluoro-2-methylphenyl)-3-((2-methoxyethyl)amino)-4H-benzo[e][1,2,4]thiadiazine, 1,1-dioxide]
35.2	CO[C@@H](C)CCNC1=NS(=O)(=O)c2cccc(-c3cccc(F)c3Cl)c2N1 [Example 155, (S)-5-(2-chloro-3-fluorophenyl)-3-((3-methoxybutyl)amino)-4H-benzo[e][1,2,4]thiadiazine 1,1-dioxide]
80.5	O=S1(=O)N=C(NCC2CCC2)Nc2c(-c3cccc(F)c3F)cccc21 [Example 22, 3-((cyclobutylmethyl)amino)-5-(2,3-difluorophenyl)-4H-benzo[e][1,2,4]thiadiazine 1,1-dioxide]
953	COCCNC1=NS(=O)(=O)c2cccc(-c3ccccc3C3CC3)c2N1 [Example 63, 5-(2-cyclopropylphenyl)-3-((2-methoxyethyl)amino)-4H-benzo[e][1,2,4]thiadiazine 1,1-dioxide]
76.2	COC(C)CNC1=NS(=O)(=O)c2cccc(-c3ccccc3Cl)c2N1 (stereo not drawn) [Example 40, 5-(2-chlorophenyl)-3-((2-methoxypropyl)amino)-4H-benzo[e][1,2,4]thiadiazine 1,1-dioxide]
384	O=S1(=O)N=C(NCC2CCC2)Nc2c(-c3cc(F)cc(F)c3)cccc21 [Example 81, 3-((cyclobutylmethyl)amino)-5-(3,5-difluorophenyl)-4H-benzo[e][1,2,4]thiadiazine 1,1-dioxide]

More lines, now with the values behind:

Compound	EC50 [nM]
CC(C)c1ccc(NC2=NS(=O)(=O)c3cccc(C4CCC4)c3N2)cc1 [Example 111, 5-cyclobutyl-3-((4-isopropylphenyl)amino)-4H-benzo[e][1,2,4]thiadiazine 1,1-dioxide]	106
CNC1=NS(=O)(=O)c2cccc(-c3cc(F)ccc3Cl)c2N1 [Example 93, 5-(2-chloro-5-fluorophenyl)-3-(methylamino)-4H-benzo[e][1,2,4]thiadiazine 1,1-dioxide]	181
O=S1(=O)N=C(NCc2ccccc2)Nc2c(-c3cc(F)cc(F)c3)cccc21 [Example 88, 3-(benzylamino)-5-(3,5-difluorophenyl)-4H-benzo[e][1,2,4]thiadiazine 1,1-dioxide]	75.2
CCC(CNC1=NS(=O)(=O)c2cccc(-c3cc(F)cc(F)c3)c2N1)OC (stereo not drawn) [Example 87, 5-(3,5-difluorophenyl)-3-((2-methoxybutyl)amino)-4H-benzo[e][1,2,4]thiadiazine 1,1-dioxide]	240
CC(C)c1ccc(NC2=NS(=O)(=O)c3cccc(C(C)C)c3N2)cc1 [Example 110, 5-isopropyl-3-((4-isopropylphenyl)amino)-4H-benzo[e][1,2,4]thiadiazine 1,1-dioxide]	35.2
CO[C@@H](C)CNC1=NS(=O)(=O)c2cccc(-c3cc(F)cc(F)c3)c2N1 (single isomer, unassigned) [Example 86]	> 50100
O=S1(=O)N=C(NCc2ccccn2)Nc2c(-c3cc(F)cc(F)c3F)cccc21 [Example 131, 3-((pyridin-2-ylmethyl)amino)-5-(2,3,5-trifluorophenyl)-4H-benzo[e][1,2,4]thiadiazine 1,1-dioxide]	88.5
CNC1=NS(=O)(=O)c2cc(C)cc(-c3cccc(F)c3Cl)c2N1 [Example 97, 5-(2-chloro-3-fluorophenyl)-7-methyl-3-(methylamino)-4H-benzo[e][1,2,4]thiadiazine 1,1-dioxide]	589
Cc1n[nH]cc1-c1cccc2c1NC(Nc1ccc(C(C)C)cc1)=NS2(=O)=O [Example 106, 3-((4-isopropylphenyl)amino)-5-(3-methyl-1H-pyrazol-4-yl)-4H-benzo[e][1,2,4]thiadiazine 1,1-dioxide]	70.1
CNC1=NS(=O)(=O)c2cccc(-c3cc(F)cc(F)c3F)c2N1 [Example 96, 3-(methylamino)-5-(2,3,5-trifluorophenyl)-4H-benzo[e][1,2,4]thiadiazine 1,1-dioxide]	598
O=S1(=O)N=C(NCc2cc(F)ccc2F)Nc2c(-c3cc(F)cc(F)c3)cccc21 [Example 76, 3-((2,5-difluorobenzyl)amino)-5-(3,5-difluorophenyl)-4H-benzo[e][1,2,4]thiadiazine 1,1-dioxide]	34.8
CC(C)c1ccc(NC2=NS(=O)(=O)c3cccc(-c4ccccc4Cl)c3N2)cn1 [Example 117, 5-(2-chlorophenyl)-3-((6-isopropylpyridin-3-yl)amino)-4H-benzo[e][1,2,4]thiadiazine 1,1-dioxide]	197
Cn1cccc(CNC2=NS(=O)(=O)c3cccc(-c4cccc(F)c4F)c3N2)c1=O [Example 20, 3-(((5-(2,3-difluorophenyl)-1,1-dioxido-4H-benzo[e][1,2,4]thiadiazin-3-yl)amino)methyl)-1-methylpyridin-2(1H)-one]	857
O=S1(=O)N=C(NCCc2ccncc2)Nc2c(-c3cccc(F)c3Cl)cccc21 [Example 68, 5-(2-chloro-3-fluorophenyl)-3-((2-(pyridin-4-yl)ethyl)amino)-4H-benzo[e][1,2,4]thiadiazine 1,1-dioxide]	305
Cc1cnc(CNC2=NS(=O)(=O)c3cccc(-c4cccc(F)c4Cl)c3N2)o1 [Example 38, 5-(2-chloro-3-fluorophenyl)-3-(((5-methyloxazol-2-yl)methyl)amino)-4H-benzo[e][1,2,4]thiadiazine 1,1-dioxide]	51.9
O=S1(=O)N=C(NCCF)Nc2c(-c3cccc(F)c3Cl)cc(F)cc21 [Example 11, 5-(2-chloro-3-fluorophenyl)-7-fluoro-3-((2-fluoroethyl)amino)-4H-benzo[e][1,2,4]thiadiazine 1,1-dioxide]	127
CCNC1=NS(=O)(=O)c2cc(F)cc(-c3ccccc3Cl)c2N1 [Example 15, 5-(2-chlorophenyl)-3-(ethylamino)-7-fluoro-4H-benzo[e][1,2,4]thiadiazine 1,1-dioxide]	62.4
Cc1nn(C)cc1-c1cccc2c1NC(Nc1cccc(C(C)C)c1)=NS2(=O)=O [Example 115, 5-(1,3-dimethyl-1H-pyrazol-4-yl)-3-((3-isopropylphenyl)amino)-4H-benzo[e][1,2,4]thiadiazine 1,1-dioxide]	54.8
O=S1(=O)N=C(NCc2ncccc2F)Nc2c(-c3ccnc(F)c3Cl)cccc21 [Example 51, 5-(3-chloro-2-fluoropyridin-4-yl)-3-(((3-fluoropyridin-2-yl)methyl)amino)-4H-benzo[e][1,2,4]thiadiazine 1,1-dioxide]	19
O=S1(=O)N=C(NCc2ncco2)Nc2c(-c3ccnc(F)c3Cl)cccc21 [Example 48, 5-(3-chloro-2-fluoropyridin-4-yl)-3-((oxazol-2-ylmethyl)amino)-4H-benzo[e][1,2,4]thiadiazine 1,1-dioxide]	36
O=S1(=O)N=C(NCc2ccc(F)cc2)Nc2c(-c3cc(F)cc(F)c3)cccc21 [Example 75, 5-(3,5-difluorophenyl)-3-((4-fluorobenzyl)amino)-4H-benzo[e][1,2,4]thiadiazine 1,1-dioxide]	34.6
COC(C)CNC1=NS(=O)(=O)c2cccc(-c3cn(C)nc3C)c2N1 (stereo not drawn) [Example 60, 5-(1,3-dimethyl-1H-pyrazol-4-yl)-3-((2-methoxypropyl)amino)-4H-benzo[e][1,2,4]thiadiazine 1,1-dioxide]	865
O=S1(=O)N=C(NCc2ccccn2)Nc2c(-c3cc(F)cc(F)c3)cccc21 [Example 83, 5-(3,5-difluorophenyl)-3-((pyridin-2-ylmethyl)amino)-4H-benzo[e][1,2,4]thiadiazine 1,1-dioxide]	423
